Activity calls are given as the source filed them. The rule behind the calls is not given here.
These molecules were tested against T1, Tyrosinase (Agaricus bisporus) (UniProt O42713) (assay: Reversible inhibition of mushroom tyrosinase using L-DOPA as substrate at 0.1 to 0.5 uM).
T1 sequence (whole entry): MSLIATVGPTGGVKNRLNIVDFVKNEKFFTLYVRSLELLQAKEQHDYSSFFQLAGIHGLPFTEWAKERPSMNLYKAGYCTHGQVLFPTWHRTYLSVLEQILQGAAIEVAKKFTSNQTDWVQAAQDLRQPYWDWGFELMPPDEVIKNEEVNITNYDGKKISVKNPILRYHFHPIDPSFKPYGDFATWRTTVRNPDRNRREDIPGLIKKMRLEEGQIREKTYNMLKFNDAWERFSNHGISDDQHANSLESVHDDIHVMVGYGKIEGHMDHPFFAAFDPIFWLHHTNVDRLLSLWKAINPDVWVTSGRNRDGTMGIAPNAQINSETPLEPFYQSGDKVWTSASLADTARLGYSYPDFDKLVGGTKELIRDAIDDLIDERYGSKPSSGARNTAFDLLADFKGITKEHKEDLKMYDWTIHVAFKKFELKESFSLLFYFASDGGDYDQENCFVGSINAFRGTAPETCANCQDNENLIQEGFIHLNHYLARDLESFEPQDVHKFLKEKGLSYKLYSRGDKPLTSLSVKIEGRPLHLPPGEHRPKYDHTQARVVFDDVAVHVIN

| inhibition | Compound |
| --- | --- |
| Active | C/C(=N\NC(N)=S)c1ccc(NC(=O)c2ccccc2)cc1 |

These molecules were tested against T1, Tyrosinase (Agaricus bisporus) (assay: Activation of mushroom tyrosinase at 0.12 to 75 ug/L relative to control).

| Activity [%] | Compound |
| --- | --- |
| 12 | OC[C@H]1O[C@@H](Oc2c(O)cc(O)cc2/C=C/c2ccc(O)cc2)[C@H](O)[C@@H](O)[C@@H]1O |

What follows are molecules tested against T1, Tyrosinase (Agaricus bisporus) (assay: Activation of mushroom tyrosinase using L-DOPA as substrate at 100 umol/L preincubated for 30 mins followed by substrate addition measured for 1 min).

| Activity | Compound |
| --- | --- |
| Active | CC(=O)Nc1ccc(C(C)=O)cc1 |

These molecules were tested against T1, Tyrosinase (Agaricus bisporus) (assay: Non-competitive inhibition of mushroom tyrosinase using L-DOPA as substrate at 0.1 to 0.5 uM by Lineweaver-Burk plot analysis).

| inhibition | Compound |
| --- | --- |
| Active | C/C(=N\NC(N)=S)c1ccc(NC(=O)c2ccccc2)cc1 |

Each molecule was assayed against T2, Tyrosinase (Agaricus bisporus, UniProt O42713).
T2 sequence (O42713 whole entry): T1 sequence (whole entry)
Description: Inhibition of mushroom tyrosinase diphenolase activity using L-DOPA as substrate preincubated for 30 mins followed by substrate addition measured for 1 min

| Compound | IC50 [nM] |
| --- | --- |
| CCCCC(=O)Nc1cccc(/C(C)=N/NC(N)=S)c1 | 1540 |
| C/C(=N\NC(N)=S)c1ccc(N)cc1 | 2620 |
| C/C(=N\NC(N)=S)c1cccc(NC(=O)C(C)C)c1 | 3620 |
| C/C(=N\NC(N)=S)c1cccc(N)c1 | 6110 |
| C/C(=N\NC(N)=S)c1cccc(NC(=O)C(C)(C)C)c1 | 4410 |
| CC(=O)Nc1cccc(/C(C)=N/NC(N)=S)c1 | 4120 |
| CCCCCCC(=O)Nc1cccc(/C(C)=N/NC(N)=S)c1 | 2200 |
| CCCCCC(=O)Nc1cccc(/C(C)=N/NC(N)=S)c1 | 1690 |
| C/C(=N\NC(N)=S)c1cccc(NC(=O)C(F)(F)F)c1 | 5760 |
| C/C(=N\NC(N)=S)c1cccc(NC(=O)c2ccccc2)c1 | 1530 |
| C/C(=N\NC(N)=S)c1cccc(NC(=O)Cc2ccccc2)c1 | 1790 |

Other lines, results leading:

| IC50 [nM] | Compound |
| --- | --- |
| 1340 | C/C(=N\NC(N)=S)c1ccc(NC(=O)C(F)(F)F)cc1 |
| 1140 | COc1ccc(C(=O)Nc2ccc(/C(C)=N/NC(N)=S)cc2)cc1 |
| 814 | C/C(=N\NC(N)=S)c1ccc(NC(=O)C(C)C)cc1 |
| 762 | CCCCCC(=O)Nc1ccc(/C(C)=N/NC(N)=S)cc1 |
| 644 | CCCC(=O)Nc1ccc(/C(C)=N/NC(N)=S)cc1 |
| 610 | C/C(=N\NC(N)=S)c1ccc(NC(=O)c2ccc(F)cc2)cc1 |
| 578 | C/C(=N\NC(N)=S)c1ccc(NC(=O)Cc2ccccc2)cc1 |
| 508 | CC(=O)Nc1ccc(/C(C)=N/NC(N)=S)cc1 |
| 498 | COC(=O)Nc1ccc(/C(C)=N/NC(N)=S)cc1 |
| 492 | CCCCC(=O)Nc1ccc(/C(C)=N/NC(N)=S)cc1 |
| 406 | C/C(=N\NC(N)=S)c1ccc(NC(=O)C(Cl)(Cl)Cl)cc1 |
| 372 | CCC(=O)Nc1ccc(/C(C)=N/NC(N)=S)cc1 |
| 356 | CCCCCCC(=O)Nc1ccc(/C(C)=N/NC(N)=S)cc1 |
| 291 | C/C(=N\NC(N)=S)c1ccc(NC(=O)c2ccccc2)cc1 |

What follows are molecules tested against T1, Tyrosinase (Agaricus bisporus) (assay: Reversible inhibition of mushroom tyrosinase using L-DOPA as substrate at 1 to 2 uM).

| inhibition | Compound |
| --- | --- |
| Active | C/C(=N\NC(N)=S)c1cccc(NC(=O)c2ccccc2)c1 |

The molecules below were run against T1, Tyrosinase (Agaricus bisporus) (assay: Competitive-uncompetitive mixed-2 type inhibition of mushroom tyrosinase using L-DOPA as substrate at 1 to 2 uM by Lineweaver-Burk plot analysis).

| inhibition | Compound |
| --- | --- |
| Active | C/C(=N\NC(N)=S)c1cccc(NC(=O)c2ccccc2)c1 |
